The values below come from a melting point compilation (Tetko et al.; mined from patent text by program, amines drawn as free bases though some values may be those of a salt).

SMILES strings stand for the structures. A value given as a limit tells only on which side of the number the result lay.

One may read the melting point as the temperature, or range, at which the solid turns liquid. As for `CCCc1nn(C)c2c(=O)[nH]c(-c3cc(S(=O)(=O)N4CCN(C)CC4)ccc3O)nc12`, the melting point lay within 283 to 284 °C.

`CCN1CCN(c2c(F)cc3c(=O)c(C(=O)O)cn(CC)c3c2F)CC1` gave a melting point of 236 to 239 °C. Consider `CCc1cc(C#N)sc1-c1ccc2c(c1)C(C)(C)OC(=O)N2`, for which the melting point is 160 to 162 °C. On to `Nc1cccc(-c2ccc(CCN3CCN(c4nnnn4-c4ccc(F)cc4)CC3)cc2)n1`, for which the melting point is 185 to 187 °C. In turn, `O=C(c1cc2cc3oc(=O)[nH]c3cc2o1)N1CCC(Cc2ccccc2)CC1` had a melting point of 205 to 210 °C. In the case of `CCCCCC(C)N(CCCC)c1ccc(C2=C(C#N)C(=C(C#N)C#N)NC2=O)cc1` (stereo not drawn) it was 180 °C; in that of `COCCOc1cc(N(C)S(=O)(=O)c2ccccn2)c2[nH]c(C3=NCC(CC(=O)O)S3)cc2c1` (stereo not drawn), 107 to 109 °C; in that of `CC(C)Oc1ccccc1-c1ccoc1C(=O)NNC(=O)c1ccc(O)c(C#N)c1`, 128 to 130 °C.

`CCc1nnc(-c2ccc(OC)cc2)c(-c2ccc(OC)cc2)n1` displayed a melting point of 73 to 75.5 °C. `CCCc1c(OCCCOc2ccc3c(c2CCC)OC(C(=O)O)CC3)ccc(C(C)=O)c1O` (stereo not drawn) displayed a melting point of 108 to 109 °C. As for `COc1ccc(CS[C@@H]2C[C@@H](CN=[N+]=[N-])N(S(=O)(=O)c3ccc4ccccc4c3)C2)cc1`, the melting point came to 143 °C.

Consider `CCCCCCCCCCCCc1ccc(NC)c([N+](=O)[O-])c1`, for which the melting point worked out at 54 °C. In the case of `CC(C)OC(=O)C1=C(c2cn(C)c3ccccc23)C(=O)NC1=O` it was 199 to 202 °C; in that of `O=CNc1ccc(-c2ccc(C(=O)N3CCN4CCC3CC4)o2)cc1`, 236 °C; in that of `COc1ccc(CCN(C)CCCC2(c3ccc(OC)c(OC)c3)S(=O)(=O)CCCS2(=O)=O)cc1OC`, 144 °C. The compound `[N-]=[N+]=Nc1cnn(-c2cc(-c3ccnc(Nc4cccc(Cl)c4)n3)ccn2)c(=O)c1Cl` had a melting point of 184 to 186 °C.

Turning to `COc1ccc(C(=O)C2CCCCC2)c(Cl)c1Cl`, the melting point lay in the range of 97 to 98 °C. Turning to `OCc1snc(Cl)c1Cl`, the melting point was 94 to 95 °C. `O=C(Cc1ccccc1Cl)c1ccc(I)cc1` showed a melting point of 105 to 106 °C. In the case of `Nc1nc2cc(-c3cccc(C(=O)N4CCCC4)c3)ccc2c2c1nc(CO)n2CC1CCOCC1` it was 281 to 284 °C; in that of `Cc1conc1-c1nnc2c3ccccc3c(OCc3nnccc3C(C)(C)C)nn12`, 230 to 232 °C; in that of `COc1cc(C=C[N+](=O)[O-])cc(OC)c1OC`, 116 to 118 °C. Regarding `COc1ccc(CNC(=O)C(=O)NCCc2ccccn2)c(OC)c1`, the melting point was 123 to 124 °C.

`Cn1cc(-c2ccc3nnc(C(F)(F)c4ccc5nc(NC(=O)C6CC6)cn5n4)n3c2)cn1`: the melting point was 275 °C. For the compound `Cc1c(F)c(Br)cc2c1c(=O)c(C(=O)O)cn2C1CC1`, the melting point is 237 to 239 °C.

`Cc1ccc(S(=O)(=O)OCC2COc3ccc4c(=O)ccoc4c3O2)cc1` (stereo not drawn) had a melting point of 190 to 191 °C. The compound `N#Cc1ccc(N(Cc2ccc(OS(N)(=O)=O)cc2)n2cnnc2)cc1-c1ccco1` came in with a melting point of 177 to 178 °C. On to `C[C@@H](n1ccnn1)[C@](O)(Cn1ccnc1)c1ccc(F)cc1F`, for which the melting point lay within 150 to 151 °C. With `CN(C)c1c([N+](=O)[O-])cc(-c2nc(Cl)c(CC#N)n2Cc2ccccc2)cc1[N+](=O)[O-]`, the melting point lay in the range of 173 to 175 °C.

As for `Nc1ncc2cc(-c3ccccc3)c(O)nc2n1`, the melting point was 390 to 395 °C.

As for `COc1ccc(CNc2ccccc2C(=O)Nc2ccc(Cl)c(C(F)(F)F)c2)cn1`, the melting point lay within 108 to 110 °C. The compound `Oc1cccc2c1CCCC2N1CCCC1` (stereo not drawn) showed a melting point of 151 to 153 °C. `Clc1nc2ccccc2c2c(CCC3CCNCC3)n(-c3ccccc3)nc12` yielded a melting point of 194 °C. `CSN(C)C(=O)Nc1ccc(Cl)c(Cl)c1` yielded a melting point of 93 °C.

Consider `O=C1C=C(Nc2ccccc2F)CCN1`, for which the melting point was in the range of 98 to 100 °C.

For `N=C(N)NC(=O)Cn1c(C(=O)c2ccccc2)ccc1-c1ccccc1`, the melting point lay within 201 to 203 °C. `O=C1C=CC2(C=C1)N=C(N1CCN(Cc3ccccc3)CC1)C=C2c1ccccc1` had a melting point of 190 °C.

`COC(=O)c1cccc(OCc2ccccc2)c1` showed a melting point of 74 to 77 °C. In turn, `O=S(=O)(O)c1ccc(Nc2cnnc3cc(Cl)ccc23)cc1` gave a melting point of over 280 °C. In the case of `Cc1nc(N)c2ncn(Cc3cc(-c4ccc(F)cc4)no3)c2c1C` it was 244 to 246 °C; in that of `CNC1CCN(c2nc3c(cc2F)c(=O)c(C(=O)O)cn3C2CC2)C1` (stereo not drawn), 233 to 235 °C. In the case of `CCCCn1c(=O)c2cc(C(=O)OCC)cn2c2ccccc21` it was 146 to 148 °C; in that of `CC(Oc1ccc(Cl)cc1)(C(=O)O)C(F)(F)F` (stereo not drawn), 141 to 142 °C. Under `COc1ccc(-n2nc(CO)c3c2CCC3)cc1` stands 88 to 89 °C; under `C#CCOc1c(-c2ccccc2)c(=O)[nH]c2cc(Cl)ccc12`, 183 to 185 °C; under `COc1ccc(S(=O)(=O)C2(CCC/C=C/c3ccc(Cl)cc3)SC(=O)NC2=O)cc1` (stereo not drawn), 182 to 184 °C. Compound `CCOC(=O)C1=Cc2ccsc2S(=O)(=O)N1CCCOC` gave a melting point of 82 to 83 °C. `NS(=O)(=O)c1ccc(-c2noc(-c3cnn4c(C(F)F)cc(-c5ccc(C(F)(F)F)cc5)nc34)n2)cc1` showed a melting point of 283 °C. Compound `NS(=O)(=O)c1cc(C(=O)NN(c2ccccc2)C2CCCCC2)ccc1Cl` yielded a melting point of 216 to 217 °C. In turn, `O=c1[nH]c(-c2ccccc2F)nc2c1CCCC2` registered a melting point of 170 °C. `Cc1c(C(F)(F)F)cnc(O)c1Cl` registered a melting point of 204 to 205 °C.

Turning to `Cc1c2n(c3ccccc13)C(=O)C(CO)(Cc1ncn(C(c3ccccc3)(c3ccccc3)c3ccccc3)c1C)CC2` (stereo not drawn), the melting point lay within 85 to 88 °C. The compound `Cc1c(-c2ccc(OCc3ccccc3)cc2)n(Cc2ccc(OCCN3C[C@@H]4CC[C@H]3C4)cc2)c2ccc(OCc3ccccc3)cc12` displayed a melting point of 95 to 100 °C. The compound `CCCc1nn(CC)c(C(N)=O)c1N` had a melting point of 81 to 83 °C. The compound `CCCCN(CCCC)Cc1nnc(-c2ncn3c2CN(C)C(=O)c2c(Cl)cccc2-3)o1` displayed a melting point of 105 to 108 °C. `CCCCc1oc2ccccc2c1-c1ncc(-c2ccc3cc(OCc4ccc(C(=O)O)cc4)ccc3c2)o1`: the melting point is 251 to 254 °C.

Compound `CCCCc1nc(=O)c2cc(C=O)ccc2[nH]1` showed a melting point of 242 to 244 °C. For `COc1ccc(-c2ccnc(Nc3cc(OC)c(OC)c(OC)c3)n2)cc1`, the melting point lay in the range of 148 to 150 °C. The compound `COC(=O)CC(C)C(=O)c1ccc2c(c1)OCC(=O)N2` (stereo not drawn) gave a melting point of 95 to 98 °C.

In the case of `N=C(N)CSc1nnc(S)s1`, the melting point lay within 184 to 187 °C.

Compound `Cc1[nH]c(C(=O)N2CCC(C(=O)NCCCN(C)C)CC2)c(C)c1-c1nc2ccc(C(=O)c3ccccc3)cc2[nH]1` had a melting point of 247 to 251 °C. `CC(=O)NC1CCCC1CC(Cl)C#N` (stereo not drawn) came in with a melting point of 114 to 117 °C. `O=C1CCC(CCc2ccc(-n3ccnc3)cc2)=NN1` registered a melting point of 195 to 196 °C.
